# Data: patent publication US12558322B2, “Control method of local release for target compounds by using patterning hydrogel to nanoporous membrane” (KNU-Industry Cooperation Foundation, priority 2018, dated 2026)
# Key:
# YD-10B cells [1] = assay: Live/dead assay of YD-10B cells on 5-FU containing HAMA hydrogel arrays; type: cell-based, human; settings: 5 days
# Method: (§1) To estimate the rate of apoptosis of tumor cells at a controlled release anticancer drug rate, YD-10B cells derived from human oral squamous cancer were cultured on a 15% (w/v) HAMA hydrogel-arrayed amphipathic membrane. The amphipathic membrane was prepared at a size of 20 mm×20 mm and was fixed at the bottom of the cell culture dish with the use of PDMS blocks as supporters to prevent floating in the culture media. Overall, YD-10B cells (100 μL, cell density of 1.0×10^6 cells/mL) were seeded on the HAMA hydrogel-arrayed amphipathic membrane that contained 5-FU. As a control group, YD-10B cells without 5-FU were seeded on the array. The cells were cultured in culture media [RPMI (RPMI 1640 medium, HEPES)] (Gibco, CA, USA) with 10% fetal bovine serum (FBS) (Gibco) and 1% penicillin/streptomycin (Gibco) in an incubator (MCO-18AIC, Sanyo, Japan) at 5% CO2 and 37.5° C. After 5 days, the live/dead assay [live/dead viability/cytotoxicity kit (Invitrogen, MA, USA)] was conducted to evaluate anticancer performance. The solution for the live/dead assay was mixed with 20 μL of Ethidium Homodimer-1 (EthD-1) and 5 μL of calcein-AM in 10 mL of DPBS in the dark room. The culture media were eliminated using a micropipette, and the residual media were washed twice by DPBS. The staining solution was added on the arrayed amphipathic membrane and incubated for 40 min. The viability of the YD-10B cells on the amphipathic membrane was evaluated by a fluorescent microscope (Zeiss, Germany). The cytoplasm of live cells was stained with calcein-AM (green fluorescence, excitation wavelength: 488 nm/emission wavelength: 515 nm), while the DNA of dead cells was stained with EthD-1 as fluorescence red (excitation: 570 nm/emission: 602 nm). Additionally, the actin filaments of cells were stained to verify the colony formations of tumor cells. For the fixation of cultured cells, the membrane was washed with DPBS and was immersed in 4% paraformaldehyde (PFA) for 15 min. Triton X-100 was used for permeabilization for 5 min at −20° C. on a PFA-immersed membrane. […]
# YD-10B cells [2] = assay: Actin filament staining of YD-10B cells (colony formation); type: cell-based, human; settings: 5-FU encapsulated in HAMA hydrogel array, 5 days
# Method: as §1, with “The solution for the live/dead assay was mixed with 20 μL of Ethidium Homodimer-1 (EthD-1) and 5 μL of calcein-AM in 10 mL of DPBS in the dark room. The culture media were eliminated using a micropipette, and the residual media were washed twice by DPBS. The staining solution was added on the arrayed amphipathic membrane and incubated for 40 min.” left out, “nm).” for “nm). Additionally, the actin filaments of cells were stained to verify the colony formations of tumor cells. For the fixation of cultured cells, the membrane was washed with DPBS and was immersed in 4% paraformaldehyde (PFA) for 15 min. Triton X-100 was used for permeabilization for 5 min at −20° C. on a PFA-immersed membrane.”
smiles,measurement,setting,value
O=c1[nH]cc(F)c(=O)[nH]1 [5-FU],reduction of adhesion rate (calcein-AM expression area),"YD-10B cells [1]; 5-FU encapsulated in HAMA hydrogel array, vs without 5-FU",approximately 48%
same,viable cells (live/dead assay),YD-10B cells [1]; HAMA hydrogel arrays containing 5-FU,only a few viable cells were visible
same,adhesion area (calcein-AM),YD-10B cells [1]; cultured with 5-FU in HAMA hydrogel array,"approximately 19,321 μm^2"
same,cell growth and colony formation,YD-10B cells [2],can inhibit the growth and proliferation of cells
